Measurements from patent US12714698B2, “Compositions and methods for treating or preventing dermal disorders” (Drexel University, priority 2015, dated 2026).
Where two headings read alike, the source gives them in different places.

Key:
[1] = test system: ribosomal S6 protein and MDM2; test: Immunoblot of ribosomal S6 protein and MDM2 phosphorylation (mTORC1/p70S6K signaling); format: cell-based, human
Experimental: (§1) Cell culture experiments utilizing NRTIs were of the following design. Cultures of either human lung or cardiac fibroblasts were cultivated according to standard culture protocols for these cells (Cristofalo, et al., Journal of Tissue Culture Methods 1980, 6:117-121). Parallel sets of cultures were maintained in normal growth media or in normal growth media with the addition of 1 nM rapamycin. Cultures were maintained with 1 nM rapamycin (Enzo Biologicals) for two weeks before exposure to NRTIs. Cell cultures were exposed to NRTIs at indicated concentrations in individual experiments (generally 10-20 μg/ml) for 7 days, with a change of media and fresh NRTIs at day 4. Mitochondrial measurements, bioanalyzer measurements, immunoblotting for protein expression and phosphorylation status, and assays for senescence were performed at the end of this 7-day period.
(§2) Cell culture reagents were from Cellgro, unless indicated. WI-38 fetal-lung primary human fibroblasts or human cardiac fibroblasts were grown in MEM supplemented with 10% fetal bovine serum, 1% L-glutamine, MEM vitamins, and MEM non-essential amino acids. Cells were maintained in a 37° C. in 5% CO2 incubator. For treatment studies, cells were treated with 1 nM rapamycin (Enzo Biologicals) for two weeks before treatment with NRTIs. Cells were maintained by trypsinization and reseeding at a cell density of 1×10^4/cm^2 every 7 to 10 days. Emtricitabine (FTC) and tenofovir disoproxil fumarate (TDF) were kindly provided by the NIH AIDS Research & Reference Reagent program. During the 7-day exposure to the NRTIs, the pharmacologic inhibitors PD98059 (10 μM, Santa Cruz Biotechnologies), BI-D1870, GW5074, and SB203580 (10 μM, Enzo Biologicals) were added to the culture medium either during the final 48 hours or for the final 2 hours depending upon the experiment. During the 7-day exposure to NRTIs, Trolox (500 μM) and N-acetylcysteine (100 μM, Acros Organics) were added every other day. Mito-Q (20 nM) and TPP (20 nM) were kindly provided by Dr. Brett Kaufmann at the University of Pennsylvania School of Veterinary Medicine. Vector and mt-catalase adenoviruses (MOI's 25, 50, and 75) were purchased from Gene Transfer Vector Core from the University of Iowa.
Cell protein extracts were prepared by extracting with radioimmunoprecipitation assay (RIPA) buffer containing a protease inhibitor cocktail (Sigma-Aldrich) and phosphatase inhibitors, NaF and sodium orthovanadate. Protein concentration was quantified using a bicinchoninic acid (BCA) assay (Pierce Biotechnology). Western blot analysis was performed using 15 to 30 μg of protein extracts that were run on SDS-PAGE and transferred onto nitrocellulose (Biorad) membranes. Blots were incubated with antibodies specific for: beta-actin (Sigma-Aldrich), TFAm, parkin, p16, phospho(S82)HSP27, HSP27 (Santa Cruz Biotechnologies), p53, 21, catalase, MDM2 (EMD Millipore), VDAC, phospho(S235/236)-ribosomal protein S6, ribosomal protein S6, phospho(S166)-MDM2, phospho(5473)-AKT, AKT, beta-tubulin (Cell Signaling), p62 (Enzo Biologicals), IL-6 (NeoBiolab), lamin B1, PINK1, and Mitoprofile Total OXPHOS Cocktail (complex I-NDUFB8 subunit, CII-SDHB subunit, […]2 subunit, and CIV-mitochondrial COX1 subunit) (Abcam) according to manufacturers' instructions. Western blots were visualized using IRDye 680 and 800 LI-COR secondary antibodies on a LI-COR Odyssey using LI-COR Odyssey software version 3.0 (LI-COR Biosciences). For co-immunoprecipitation, cell protein extracts were prepared in HNTG buffer containing a protease inhibitor cocktail and quantified using BCA assay. Protein extracts at the concentration of 0.5 mg were pre-cleared with protein A/G beads (Santa Cruz Biologicals) for 30 minutes. After centrifugation at 2,000 rpm for 5 minutes at 4° C., the supernatant was incubated with the primary antibody at manufacturer's recommended concentration overnight at 4° C. An IgG antibody (Cell Signaling) was used as a non-specific control.

[2] = test system: ribosomal S6 protein and MDM2; test: as above; format: cell-based, human; remark: listed apart in the source
[3] = test system: human cardiac fibroblasts; test: Senescence-associated beta-galactosidase detection; format: cell-based; settings: ROS-reducing intervention during NRTI exposure, no rapamycin
Experimental: as §1
Assessment of SA-β-gal activity was performed by plating cells following respective treatments at low density (0.5×10^4/cm^2) to prevent false positive staining known to occur in high density cultures. […] Following incubation, cells were washed three times with PBS and at least 500 cells were counted for each sample in triplicates. Positive cells (blue cells) were expressed as a percentage of total cells.

[4] = test system: human cardiac fibroblasts; test: Mitochondrial membrane potential, mass, superoxide and total ROS by flow cytometry; format: cell-based; settings: control cultures (no rapamycin) treated with scavenger during NRTI exposure
Experimental: as §1, §2
Mitochondrial membrane potential was detected by incubating cells with 25 nM TMRE (Molecular Probes). Mitochondrial mass was evaluated by incubating the cells with 100 nM Mitotracker Green FM (Molecular Probes). Mitochondrial superoxide anion levels were detected by incubating the cells with 5 μM MitoSox Red (Molecular Probes). Total cellular levels of ROS were detected by incubating the cells with 10 μM 2′,7′-dichlorofluoroscein diacetate (DCF-DA; Sigma-Aldrich) in 1% fetal bovine serumsupplemented MEM and washing twice with Krebs Ringer phosphate glucose buffer (145 mM NaCl, 5.7 mM NaH2PO4, 4.86 mM KCL, 0.54 mM CaCl2), 1.22 mM MgSO4, and 5.5 mM glucose) following the incubation period. For the aforementioned assessments, incubation was performed at 37° C. in 5% CO2 for 30 minutes and cells were harvested in 2.5% trypsin-EDTA with serum-containing medium. Cells were immediately analyzed with a Guava EasyCyte Mini employing the Guava Express Plus program (Guava Technologies).

[5] = test system: human cardiac fibroblasts; test: Mitochondrial respiration, Seahorse XF24 Bioanalyzer; format: cell-based; settings: mito-Q during NRTI exposure
Experimental: Cell culture experiments utilizing NRTIs were of the following design. Cultures of either human lung or cardiac fibroblasts were cultivated according to standard culture protocols for these cells (Cristofalo, et al., Journal of Tissue Culture Methods 1980, 6:117-121). Parallel sets of cultures were maintained in normal growth media or in normal growth media with the addition of 1 nM rapamycin. Cultures were maintained with 1 nM rapamycin (Enzo Biologicals) for two weeks before exposure to NRTIs. […] Mitochondrial measurements, bioanalyzer measurements, immunoblotting for protein expression and phosphorylation status, and assays for senescence were performed at the end of this 7-day period. Mitochondrial function was measured using the XF cell mito stress test kit on a Seahorse XF24 Bioanalyzer (Seahorse Bioscience). Cells were seeded at a density of 15,000 cells per well in an XF24 microplate. Following acquisition, results were normalized based upon 10^6 cells counted using a Guava EasyCyte Mini (Millipore), where applicable. […] Respiration rates and proton leak were assessed as outlined in published methods (Hill, et al., Biological chemistry 2012, 393:1485-1512). Mitochondrial respiration was calculated based upon oxygen consumption rate measurements in triplicates from cells seeded in at least quadruplicates. Basal respiration represents the initial oxygen consumption rate measurements and maximal respiration represents the oxygen consumption rate measurements following FCCP addition. ATP-linked respiration is represented as the oligomycin-sensitive oxygen change to basal oxygen consumption rate. Proton leak represents the oligmycin insensitive oxygen consumption rate. […] All data was normalized to cell number by counting cells in each well at the completion of the mitochondrial assessments.

[6] = test system: human cardiac fibroblasts; test: Immunoblot of senescence markers (p53, p21, p16, lamin B1, IL-6); format: cell-based; settings: ROS-reducing intervention during NRTI exposure, no rapamycin
Experimental: as §1, §2
Cell protein extracts were prepared by extracting with radioimmunoprecipitation assay (RIPA) buffer containing a protease inhibitor cocktail (Sigma-Aldrich) and phosphatase inhibitors, NaF and sodium orthovanadate. Protein concentration was quantified using a bicinchoninic acid (BCA) assay (Pierce Biotechnology). […] For co-immunoprecipitation, cell protein extracts were prepared in HNTG buffer containing a protease inhibitor cocktail and quantified using BCA assay. […]

human fibroblasts = test: Ethidium bromide mitochondrial stress in human fibroblasts; settings: exposure to ethidium bromide
Text: Human fibroblasts were exposed to ethidium bromide for 7 days and cell viability measured at that time.

[7] = agent added to NRTI-exposed cardiac fibroblasts
[8] = serum-free 48 hours, exposure 2 hours, 1 to 400 μM
[9] = replicative senescent cardiac fibroblasts

**Q.** Which “ribosomal S6 phosphorylation in cells exposed to NRTIs” value [1, 7] does the source give for `COc1cc(C(C)=O)ccc1O` [apocyanin] here?
**A.** did not prevent the increase

**Q.** `C[S+]([O-])c1ccc(-c2nc(-c3ccncc3)c(-c3ccc(F)cc3)[nH]2)cc1` (stereo not drawn) [SB-203580] was tested. Which “MDM2 phosphorylation in cells exposed to NRTIs” value [1] did it give?
**A.** no effect

**Q.** And the “ribosomal S6 phosphorylation in cells exposed to NRTIs” value [1]?
**A.** no effect

**Q.** Which “ribosomal S6 phosphorylation in cells exposed to NRTIs” value [2] does the source give for `N#CC(=C(/N)Sc1ccccc1N)/C(C#N)=C(\N)Sc1ccccc1N` [U0126] here?
**A.** some decrease

**Q.** For `COC1=C(OC)C(=O)C(CCCCCCCCCC[P+](c2ccccc2)(c2ccccc2)c2ccccc2)=C(C)C1=O` [Mito-Q], which “percentage of cells positive for SA-β-gal staining” value [3] is on record?
**A.** reduced

**Q.** And the “MDM2 phosphorylation in cells exposed to NRTIs” value [1, 7]?
**A.** reduced

**Q.** What about the “ribosomal S6 phosphorylation in cells exposed to NRTIs” value [1, 7] of the same compound?
**A.** reduced

**Q.** What about the “mitochondrial ROS following exposure to NRTIs” value [4] of the same compound?
**A.** ameliorated

**Q.** What about the “mitochondrial ROS following exposure to NRTIs” value ([4]; listed as mito-Q) of the same compound?
**A.** lower level

**Q.** What about the “NRTI-induced increase in basal respiration, ATP-linked respiration and proton leak” value [5] of the same compound?
**A.** partially alleviated

**Q.** What about the maximal respiration [5] of the same compound?
**A.** less affected

**Q.** And the “increase in senescence-associated proteins (p53, p21, p16) following NRTI exposure” value [6]?
**A.** ameliorated

**Q.** For `O=C1Nc2ccc(I)cc2/C1=C/c1cc(Br)c(O)c(Br)c1` [GW5047], which “ribosomal S6 phosphorylation in cells exposed to NRTIs” value [1, 7] is on record?
**A.** some decrease

**Q.** For `C=C(C)[C@H]1Cc2c(ccc3c2O[C@@H]2COc4cc(OC)c(OC)cc4[C@@H]2C3=O)O1` [rotenone], which “concentration of sharp inhibition of S6 phosphorylation” value ([2]; serum deprived cardiac fibroblasts, 16 hours) is on record?
**A.** 50 nM

**Q.** What about the “S6 phosphorylation at nanomolar concentrations” value ([2]; serum deprived cardiac fibroblasts, 16 hours, 1 to 50 nM) of the same compound?
**A.** increased

**Q.** Which results are given for `OO` [hydrogen peroxide]?
**A.** ribosomal S6 and MDM2 phosphorylation at the lower concentrations ([2]; serum-free 48 hours, exposure 2 hours): increased; concentration of maximal activation of ribosomal S6 and MDM2 phosphorylation [2, 8]: 50 µM; concentrations at which ribosomal S6 and MDM2 phosphorylation are inhibited [2, 8]: above 100 μM

**Q.** What does the source list for `CCc1cncnc1N1CCN(Cc2nc3ccc(C(F)(F)F)cc3[nH]2)CC1` [PF-4708671]?
**A.** MDM2 phosphorylation in cells exposed to NRTIs [1, 7]: inhibited; ribosomal S6 phosphorylation in cells exposed to NRTIs [1, 7]: inhibited

**Q.** With `CC[n+]1c(-c2ccccc2)c2cc(N)ccc2c2ccc(N)cc21` [ethidium bromide] as the compound, how does the mitochondrial network (human fibroblasts) read?
**A.** destroyed

**Q.** Which results are given for `CC(C)CCN1c2nc(Nc3cc(F)c(O)c(F)c3)ncc2N(C)C(=O)C1C` (stereo not drawn) [BI-D1870]?
**A.** ribosomal S6 phosphorylation in cells exposed to NRTIs [1, 7]: greatest impact; phosphorylated MDM2 in senescent fibroblasts [2, 9]: reduced; ribosomal S6 phosphorylation in senescent fibroblasts [2, 9]: reduced
